SMILES strings stand for the structures.

One experiment has as its system rhythmic bladder contractions. The experiment can be described thus: Inhibitory effect on the rhythmic bladder contractions in anesthetized rats. In kind it is in vivo, rat. The note with it: anesthetized female Sprague-Dawley rats, 10 mg/kg, i.v., 10 minutes before vs after dosing. The text has this:
Inhibitory Effect on the Rhythmic Bladder Contractions in Anesthetized Rats
Female Sprague-Dawley rats (9 to 12 weeks old weighing between 200 to 300 g) were anethethized with urethane (subcutaneously administered with a dose of 1.2 g/kg). Both ureters were cannulated to excrete urine. A cannula was inserted into the bladder via the urethra and secured with a ligature around the urethral opening and connected to a three-way stopcock. The ends were connected to a pressure transducer for measurement of bladder pressure and to a infusion pump for intravesical infusion of saline. A cannula was inserted in the femoral vein for intravenous (i.v.) drug administration. Following a over 20 minute post-surgical stabilization period and emptying of urine in the bladder, saline was infused into the bladder (50 μl/min) to evoke the micturition reflex. After the rhythmic bladder contractions had occurred, the saline infusion rate into the bladder was changed to 5 μl/min in order to maintain these contractions. Compounds were administered after stable rhythmic bladder contraction was obtained over 15 minutes. All compounds were dissolved in saline containing 10% dimethyl acetamide for intravenous administration (1 ml/kg). When iberiotoxin, a large conductance calcium-activated K channel blocker (0.15 mg/kg, i.v.) was administered for comparison purposes, it was administered 5 minutes before drug administration.
The frequencies (contractions per minute) of rhythmic bladder contractions were calculated for 10 minutes before and after drug administration. The efficacy of compounds expressed as percent of inhibition in frequency, which calculated from the following formula: (1−frequency after dosing/frequency before dosing)×100(%)
For `COC[C@@H]1CCCN1c1cc(OC2(C(=O)[O-])CC2)nc(-c2cc(Cl)c(Cl)s2)n1.[Na+]` [Example 5], the “percent of inhibition in frequency of rhythmic bladder contractions” value (“percent of inhibition” for short) stood at 78%.

The same experiment, now with this note: anesthetized rats; 10 mg/kg; intravenous.
For the molecule `COC[C@@H]1CCCN1c1cc(OC(C)(C)C(=O)[O-])nc(-c2ccc(Cl)c(F)c2)n1.[Na+]` [Example 12], the “percent of inhibition” value is recorded as “A (A: inhibition(%) > 50)”.

On to `CC(C)(Oc1cc(N2CCC[C@H]2CF)nc(-c2ccc(Cl)c(F)c2)n1)C(=O)[O-].[Na+]` [Example 22], for which the “percent of inhibition” value is on record as “A (A: inhibition(%) > 50)”.

For the molecule `CCC(CC)(Oc1cc(N2CCC[C@H]2COC)nc(-c2ccc(Cl)c(F)c2)n1)C(=O)[O-].[Na+]` [Example 31], the “percent of inhibition” value is reported as “B (B: 50 > inhibition(%) > 30)”.

Turning to `CC(C)OC1CCN(c2cc(OC3(C(=O)[O-])CC3)nc(-c3ccc(Cl)c(F)c3)n2)CC1.[Na+]` [Example 52], the “percent of inhibition” value is recorded as “A (A: inhibition(%) > 50)”.

For the molecule `O=C([O-])C1(Oc2cc(N3CCC(CCO)CC3)nc(-c3ccc(Cl)c(F)c3)n2)CCCC1.[Na+]` [Example 59], the “percent of inhibition” value is reported as “B (B: 50 > inhibition(%) > 30)”.

With `COc1ccc(-c2cc(OC3(C(=O)[O-])CCCC3)nc(-c3ccc(Cl)c(F)c3)n2)cn1.[Na+]` [Example 567], the “percent of inhibition” value is “B (B: 50 > inhibition(%) > 30)”.

As for `CCCOC1CCN(c2cc(OC3(C(=O)[O-])CC3)nc(-c3ccc(C(F)(F)F)cc3)n2)CC1.[Na+]` [Example 693], the “percent of inhibition” value is recorded as “A (A: inhibition(%) > 50)”.

Another experiment deals with T1, human BKαβ1 channels (Homo sapiens, UniProt Q12791).
T1 construct: expressed in transfected cells; host or cells: CHO cells (G418 and hygromycin selection)
T1 sequence (Q12791 whole entry): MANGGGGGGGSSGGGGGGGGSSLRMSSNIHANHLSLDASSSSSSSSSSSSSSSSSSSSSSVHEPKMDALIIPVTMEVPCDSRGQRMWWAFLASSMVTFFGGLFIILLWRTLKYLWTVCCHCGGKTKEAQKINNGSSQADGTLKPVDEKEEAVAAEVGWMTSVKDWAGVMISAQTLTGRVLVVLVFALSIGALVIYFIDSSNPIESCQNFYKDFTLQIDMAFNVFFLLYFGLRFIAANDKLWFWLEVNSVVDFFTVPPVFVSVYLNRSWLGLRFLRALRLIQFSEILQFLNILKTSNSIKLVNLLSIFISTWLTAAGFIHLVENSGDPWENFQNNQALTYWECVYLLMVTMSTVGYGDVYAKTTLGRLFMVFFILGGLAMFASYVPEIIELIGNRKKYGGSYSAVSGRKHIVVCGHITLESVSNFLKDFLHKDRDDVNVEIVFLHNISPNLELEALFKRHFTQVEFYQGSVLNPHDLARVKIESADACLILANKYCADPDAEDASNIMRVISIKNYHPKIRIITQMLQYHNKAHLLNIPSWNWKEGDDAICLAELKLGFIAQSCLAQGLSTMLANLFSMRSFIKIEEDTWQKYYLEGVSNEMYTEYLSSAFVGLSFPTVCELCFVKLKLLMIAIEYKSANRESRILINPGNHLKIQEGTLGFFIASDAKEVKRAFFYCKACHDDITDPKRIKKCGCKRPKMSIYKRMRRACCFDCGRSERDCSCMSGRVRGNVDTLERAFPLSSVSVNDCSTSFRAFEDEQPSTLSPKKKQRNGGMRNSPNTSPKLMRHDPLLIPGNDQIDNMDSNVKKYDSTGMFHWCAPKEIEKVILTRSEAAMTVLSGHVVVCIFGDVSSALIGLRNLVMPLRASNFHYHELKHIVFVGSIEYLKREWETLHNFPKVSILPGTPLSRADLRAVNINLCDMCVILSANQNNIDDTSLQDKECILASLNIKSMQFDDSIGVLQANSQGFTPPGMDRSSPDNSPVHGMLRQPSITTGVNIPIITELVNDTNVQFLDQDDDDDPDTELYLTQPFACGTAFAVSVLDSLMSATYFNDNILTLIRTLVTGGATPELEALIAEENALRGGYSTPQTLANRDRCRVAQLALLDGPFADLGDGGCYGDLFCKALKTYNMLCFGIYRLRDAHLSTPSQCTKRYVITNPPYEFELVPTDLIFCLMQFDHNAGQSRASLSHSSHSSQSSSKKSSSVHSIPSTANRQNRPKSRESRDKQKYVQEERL
T1 sequence (Q16558 whole entry partner): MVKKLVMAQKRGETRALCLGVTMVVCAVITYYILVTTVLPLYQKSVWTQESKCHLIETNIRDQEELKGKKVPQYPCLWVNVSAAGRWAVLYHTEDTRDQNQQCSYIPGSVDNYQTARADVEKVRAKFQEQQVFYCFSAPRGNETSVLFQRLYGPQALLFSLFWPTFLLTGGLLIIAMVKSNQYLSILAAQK
Description: BK current in CHO cells expressing human BKαβ1 (PatchXpress whole-cell patch clamp), EC100. Format: cell-based. The note with it: drug concentration causing 100% increase of BK current. Here is the method:
Methods for Testing Compounds on Human BKαβ1 Channels Expressed Cho Cells
CHO cells expressing human BKαβ1 were cultured in T75 or 6 well cell culture cluster. Medium: DMEM/F12+10% FBS+0.5 mg/mL G418/genetecin+0.1 mg/mL Hygromycin. Split cells every 3-4 days at 80-90% confluence. Use cells for experiments 60-72 hrs after re-passage and at ˜90% confluence.
Trypsin solution (0.05% Trypsin+0.1% EDTA), Ca^2+ free PBS and culture medium were warmed to 37° C. Inspect the T75 flask for cell confluence. Remove culture medium and add warm Ca^2+ free PBS to wash cells. Remove Ca^2+ free PBS and add warm Trypsin solution. Put the T75 flask back to 37° C. incubator for about 4.5 minutes. Stop Trypsin activity by adding culture medium. Spin the cells down. Suspend cells in 120-160 μL external solution for BK current recording and use the cells as soon as possible.
PatchXpress Sealchip 16 electrodes (AVIVA Biosciences) and PatchXpress 7000A (Axon Instruments, Inc) were used for BK current recording. Flat bottom 1.5 mL glass vial (HiPep Laboratories) were used for containing external solutions (±compounds). The holes in the sealchip (equivalent to patch electrode) had resistance about 1.5 MΩ. Cell membrane capacitance was compensated and access resistance was also compensated by 40%. Voltage-clamp protocol: Holding voltage=0 mV. Record BK current during 200-ms steps between +80 to +120 mV in 10 mV increments and 2 sec inter-pulse interval. On-line digital leak subtraction was performed by a P/−4 procedure. After whole-cell configuration was established, 2 minute was used to optimize access resistance. Then the chamber was washed with control bath solution for 1 minute to remove excessive cells. Control bath solution was added with robotic pipette and control BK current was recorded after 1 minute equilibrium time. For each drug concentration, 45 μL drug solution was added three times with “suction before adding” mode which left old solution. For each drug addition, 1 minute equilibrium time was given. BK current was measured at each drug concentrations (usually within 3.5 minutes after first drug addition). Calculate % change of BK current at the voltage step when the control BK current first exceeding 200 pA. If the control BK current was less than 200 pA at 120 mV, the cell was not used. % changes were calculated as 100*(Id−Ic)/Ic, where Id was the current amplitude in the presence of drug and Ic was the control current amplitude.
EC100 was defined as the drug concentration causing 100% increase of BK current calculated by the method described above. EC100 was determined by the data points just below and above 100%. % Increase of BK current was plotted against log [drug concentration]. A straight line connected two data points flanking 100%. From this straight line, the concentration corresponding to 100% increase of BK current was determined as EC100.
Compounds were dissolved in DMSO to make 10 mM stock solutions. Subsequent dilutions were made with external solution. The testing drug concentrations were 0.1, 0.3, 1, 3 and 10 μM depending on the potency of compounds. The highest DMSO concentration was 0.1%. External solution (in mM): 140 NaCl, 4 KCl, 1 MgCl2, 2 CaCl2, 10 Glucose, 10 HEPES; pH=7.4 with NaOH. Internal solution (in mM): 140 KCl, 5 EGTA, 1 MgCl2, 5 MgATP, 0.2 CaCl2, 5 HEPES; pH=7.2 with KOH.
For orientation: Patch clamp records ionic current or voltage across a cell membrane.
With `COC[C@@H]1CCCN1c1cc(OC2(C(=O)[O-])CC2)nc(-c2cc(Cl)c(Cl)s2)n1.[Na+]` [Example 5], the EC100 turned out to be 0.78 µM.

Consider `COC[C@@H]1CCCN1c1cc(OC(C)(C)C(=O)[O-])nc(-c2ccc(Cl)c(F)c2)n1.[Na+]` [Example 12], for which the EC100 came to 1.39 µM.

On to `CCC(CC)(Oc1cc(N2CCC[C@H]2COC)nc(-c2ccc(Cl)c(F)c2)n1)C(=O)[O-].[Na+]` [Example 31], for which the EC100 was found to be 0.14 µM.

`O=C([O-])C1(Oc2cc(N3CCC(CCO)CC3)nc(-c3ccc(Cl)c(F)c3)n2)CCCC1.[Na+]` [Example 59] gave an EC100 of 0.51 µM.

`CCCOC1CCN(c2nc(OC3(C(=O)O)CC3)cc(-c3ccc(F)c(C(F)(F)F)c3)n2)CC1` [Example 1153] gave an EC100 of 0.34 µM.

As to `CC(C)COC1CCN(c2nc(OC3(C(=O)O)CC3)cc(-c3ccc(Cl)cc3)n2)CC1` [Example 1182], the EC100 was determined as 1.03 µM.

Molecule `O=C(O)C1(Oc2cc(-c3ccc(Cl)cc3)nc(N3CCc4ccc(F)cc4C3)n2)CC1` [Example 1191] registered an EC100 of 0.02 µM.

`O=C(O)C1(Oc2cc(-c3ccc(Cl)cc3)nc(N3CCc4cc(F)ccc4C3)n2)CC1` [Example 1192] came in with an EC100 of 0.04 µM.

The molecule `CCOCC1CCN(c2nc(OC3(C(=O)[O-])CC3)cc(-c3ccc(Cl)s3)n2)CC1.[Na+]` [Example 1197] registered an EC100 of 0.15 µM.

In turn, `O=C([O-])C1(Oc2cc(-c3ccc(Cl)s3)nc(N3CCc4ccc(F)cc4C3)n2)CC1.[Na+]` [Example 1202] gave an EC100 of 0.2 µM.

Consider `O=C(O)C1(Oc2cc(-c3ccc(Cl)s3)nc(N3CCc4cc(F)ccc4C3)n2)CC1` [Example 1203], for which the EC100 is 0.01 µM.

The molecule `COCCC1CCN(c2nc(OC3(C(=O)O)CC3)cc(-c3cc(C)c(Cl)s3)n2)CC1` [Example 1208] showed an EC100 of 0.96 µM.

For `COCCCC1CCN(c2nc(OC3(C(=O)[O-])CC3)cc(-c3cc(C)c(Cl)s3)n2)CC1.[Na+]` [Example 1215], the EC100 stood at 0.39 µM.

Turning to `CCOC1CCN(c2nc(OC3(C(=O)O)CC3)cc(-c3cc(Cl)c(Cl)s3)n2)CC1` [Example 1216], the EC100 is 0.54 µM.

As to `COCC1CCN(c2nc(OC3(C(=O)O)CC3)cc(-c3cc(Cl)c(Cl)s3)n2)CC1` [Example 1217], the EC100 was 0.19 µM.

Regarding `COCCC1CCN(c2nc(OC3(C(=O)O)CC3)cc(-c3cc(Cl)c(Cl)s3)n2)CC1` [Example 1218], the EC100 was found to be 0.15 µM.

With `O=C(O)C1(Oc2cc(OCc3ccc(F)cc3)nc(-c3ccc(Cl)cc3)n2)CC1` [Example 1281], the EC100 amounted to 0.12 µM.

`O=C(O)C1(Oc2cc(-c3ccc(Cl)cc3)nc(OCc3ccc(F)c(F)c3)n2)CC1` [Example 1286] displayed an EC100 of 1.2 µM.

(Values after patent US8575338B2, “Pyrimidine, pyridine and triazine derivatives as maxi-K channel openers” (Mitsubishi Tanabe Pharma Corporation, priority 2008, dated 2013).)
